Laboratory results taken from paper PMC6720511, “Synthesis and biological evaluation of novel N-(piperazin-1-yl)alkyl-1H-dibenzo[a,c]carbazole derivatives of dehydroabietic acid as potential MEK inhibitors” (Journal of Enzyme Inhibition and Medicinal Chemistry, 2019).

Tests used:
Type in all cases: cell-based, human
[1] = tested on: normal hepatocyte cell line (QSG-7701); experiment: MTT cytotoxic assay on normal hepatocytes; conditions: 48 h, mean value ± SD
Experimental: (§1) Three human hepatocarcinoma cell lines (SMMC-7721, HepG2 and Hep3B) and normal hepatocyte cell line (QSG-7701) were maintained in Dulbecco Modified Eagle Medium (DMEM) containing 4.0 mM L-Glutamine and 4500 mg/l Glucose supplemented with 10% (v/v) foetalbovine serum (FBS) and 100 unites/mL penicillin/streptomycin at 37 °C in humidified atmosphere of 5% CO2 and 95% air.
(§2) The in vitro cytotoxic activities of the carbazole derivatives of DHA were evaluated against three human hepatocarcinoma cell lines (SMMC-7721, HepG2 and Hep3B) and a normal human hepatocyte cell line (QSG-7701) via the MTT colorimetric method. Briefly, SMMC-7721, HepG2, Hep3B and QSG-7701 cells were harvested at log phase of growth and seeded in 96-well plates (100 µL/well at a density of 2 × 10^5 cells/mL). After 24 h incubation at 37 °C and 5% CO2 to allow cell attachment, cultures were exposed to various concentrations of the isolated compounds for 48 h. Finally, MTT solution (2.5 mg/mL in PBS) was added (40 µL/well). Plates were further incubated for 4 h at 37 °C, and the formazan crystals formed were dissolved by adding 150 µL/well of DMSO. Absorption at 570 nm was measured with an ELISA plate reader. […] Doxorubicin was co-assayed as positive control.

HepG2 = experiment: MTT cytotoxic assay; conditions: mean value ± SD
Experimental: as §1, §2

SMMC-7721 = experiment: MTT cytotoxic assay; conditions: mean value ± SD
Experimental: as §1, §2

Hep3B = experiment: MTT cytotoxic assay; conditions: 48 h, mean value ± SD
Experimental: as §1, §2

Row | Molecule | IC50 [1] [µM] | IC50 (HepG2; 48 h) [µM] | IC50 (SMMC-7721; 48 h) [µM] | IC50 (Hep3B) [µM] | IC50 (HepG2; Homo sapiens, HepG2, 48 h) [µM] | IC50 (SMMC-7721; Homo sapiens, SMMC-7721, 48 h) [µM] | IC50 (Hep3B; Homo sapiens, Hep3B) [µM]
1 | 2,3,4,4a,9,13c-Hexahydro-7-isopropyl-1,4a-dimethyl-9–(2-(1,4-diazepan-1-yl) butyl)-1H-dibenzo[a,c]carbazole-1-carboxylic acid methyl ester [Compound 8d] | 43.6 ± 4.03 | 11.5 ± 1.23 | 12.8 ± 0.84 | 14.4 ± 0.77 | – | – | –
2 | 2,3,4,4a,9,13c-Hexahydro-7-isopropyl-1,4a-dimethyl-9–(2-(4-(pyridine-2-yl) piperazin-1-yl)butyl)-1H-dibenzo[a,c]carbazole-1-carboxylic acid methyl ester [Compound 8g] | – | > 50 | > 50 | > 50 | – | – | –
3 | 2,3,4,4a,9,13c-Hexahydro-7-isopropyl-1,4a-dimethyl-9–(2-(4-(pyridine-2-yl) piperazin-1-yl)propyl)-1H-dibenzo[a,c]carbazole-1-carboxylic acid methyl ester [Compound 7g] | – | > 50 | > 50 | > 50 | – | – | –
4 | 2,3,4,4a,9,13c-Hexahydro-7-isopropyl-1,4a-dimethyl-9–(2-(4-benzylpiperazin -1-yl)butyl)-1H-dibenzo[a,c]carbazole-1-carboxylic acid methyl ester [Compound 8h] | – | > 50 | > 50 | > 50 | – | – | –
5 | 2,3,4,4a,9,13c-Hexahydro-7-isopropyl-1,4a-dimethyl-9–(2-(4-benzylpiperazin-1-yl)propyl)-1H-dibenzo[a,c]carbazole-1-carboxylic acid methyl ester [Compound 7h] | – | > 50 | > 50 | > 50 | – | – | –
6 | 2,3,4,4a,9,13c-Hexahydro-7-isopropyl-1,4a-dimethyl-9–(2-(4-phenyl piperazin-1-yl)butyl)-1H-dibenzo[a,c]carbazole-1-carboxylic acid methyl ester [Compound 8f] | – | > 50 | > 50 | > 50 | – | – | –
7 | 2,3,4,4a,9,13c-Hexahydro-7-isopropyl-1,4a-dimethyl-9–(2-(4-phenyl piperazin-1-yl)propyl)-1H-dibenzo[a,c]carbazole-1-carboxylic acid methyl ester [Compound 7f] | – | > 50 | > 50 | > 50 | – | – | –
8 | 2,3,4,4a,9,13c-Hexahydro-7-isopropyl-1,4a-dimethyl-9–(3-(4-methyl piperazin-1-yl)butyl)-1H-dibenzo[a,c]carbazole-1-carboxylic acid methyl ester [Compound 8b] | > 50 | 19.6 ± 2.91 | 34.9 ± 3.35 | 18.3 ± 1.02 | – | – | –
9 | COC(=O)C1(C)CCCC2(C)c3ccc(C(C)C)cc3-c3c(c4ccccc4n3CCN3CCN(c4ccccc4)CC3)C12 (centres unmarked) [Compound 6f, 2,3,4,4a,9,13c-Hexahydro-7-isopropyl-1,4a-dimethyl-9–(2-(4-phenylpiperazin-1-yl)ethyl)-1H-dibenzo[a,c]carbazole-1-carboxylic acid methyl ester] | – | – | – | – | > 50 | > 50 | > 50
10 | COC(=O)C1(C)CCCC2(C)c3ccc(C(C)C)cc3-c3c(c4ccccc4n3CCN3CCN(c4ccccn4)CC3)C12 (centres unmarked) [Compound 6g, 2,3,4,4a,9,13c-Hexahydro-7-isopropyl-1,4a-dimethyl-9–(2-(4-(pyridine-2-yl)piperazin-1-yl)ethyl)-1H-dibenzo[a,c]carbazole-1-carboxylic acid methyl ester] | – | – | – | – | > 50 | > 50 | > 50
11 | COC(=O)C1(C)CCCC2(C)c3ccc(C(C)C)cc3-c3c(c4ccccc4n3CCN3CCN(Cc4ccccc4)CC3)C12 (centres unmarked) [Compound 6h, 2,3,4,4a,9,13c-Hexahydro-7-isopropyl-1,4a-dimethyl-9–(2-(4-benzylpiperazin-1-yl)ethyl)-1H-dibenzo[a,c]carbazole-1-carboxylic acid methyl ester] | – | – | – | – | > 50 | > 50 | > 50
